{
  "source": "paper PMC5218480",
  "about": "(PLoS ONE, 2017)",
  "system": "MV-4-11 cells",
  "experiment": "Gene expression microarray analysis (Affymetrix PrimeView) and GSEA",
  "assay_type": "cell-based, human",
  "design": "RFU PODN (11730768_x_at) / Fold change /veh PODN (11730768_x_at) / RFU LINC00158 (11744669_a_at) / Fold change /veh LINC00158 (11744669_a_at) / RFU DUSP10 (11751237_a_at) / Fold change /veh DUSP10 (11751237_a_at) / RFU ID3 (11757404_x_at) / Fold change /veh ID3 (11757404_x_at) / RFU PLEKHG5 (11737974_s_at) / Fold change /veh PLEKHG5 (11737974_s_at) / RFU LRRC4B (11730491_at) / Fold change /veh LRRC4B (11730491_at) / RFU GIMAP4 (11747438_a_at) / Fold change /veh GIMAP4 (11747438_a_at) / RFU KRT8 (11758183_x_at) / Fold change /veh KRT8 (11758183_x_at) / RFU CNN1 (11734310_a_at) / Fold change /veh CNN1 (11734310_a_at) / RFU VPS37D (11726825_at) / Fold change /veh VPS37D (11726825_at) / RFU C10orf10 (11716522_x_at) / Fold change /veh C10orf10 (11716522_x_at) / RFU KIR2DL2 /// KIR2DL4 /// KIR2DL5A /// KIR2DL5B /// KIR2DS1 /// KIR2DS2 /// KIR2DS3 /// KIR2DS4 /// KIR3DL3 /// KIR3DL3 /// KIR3DS1 (11738374_at) / Fold change /veh KIR2DL2 /// KIR2DL4 /// KIR2DL5A /// KIR2DL5B /// KIR2DS1 /// KIR2DS2 /// KIR2DS3 /// KIR2DS4 /// KIR3DL3 /// KIR3DL3 /// KIR3DS1 (11738374_at) / RFU C1QL1 (11718748_at) / Fold change /veh C1QL1 (11718748_at) / RFU TMPRSS4 (11747572_a_at) / Fold change /veh TMPRSS4 (11747572_a_at) / RFU HAMP (11756126_x_at) / Fold change /veh HAMP (11756126_x_at) / RFU RNFT2 (11725882_a_at) / Fold change /veh RNFT2 (11725882_a_at) / RFU NR4A2 (11747474_a_at) / Fold change /veh NR4A2 (11747474_a_at) / RFU ABCC12 (11746883_a_at) / Fold change /veh ABCC12 (11746883_a_at) / RFU TMEM136 (11760407_x_at) / Fold change /veh TMEM136 (11760407_x_at) / RFU CLDN22 /// WWC2 (11732394_at) / Fold change /veh CLDN22 /// WWC2 (11732394_at) / RFU HLA-DPB1 (11760878_x_at) / Fold change /veh HLA-DPB1 (11760878_x_at) / RFU SPINT1 (11716480_a_at) / Fold change /veh SPINT1 (11716480_a_at) / RFU GAP43 (11754022_s_at) / Fold change /veh GAP43 (11754022_s_at) / RFU A4GNT (11735810_at) / Fold change /veh A4GNT (11735810_at) / RFU PRB3 (11715151_x_at) / Fold change /veh PRB3 (11715151_x_at) / RFU TUBB4B (11761932_at) / Fold change /veh TUBB4B (11761932_at) / RFU CAPN14 (11732068_a_at) / Fold change /veh CAPN14 (11732068_a_at) / RFU TMCC2 (11721928_a_at) / Fold change /veh TMCC2 (11721928_a_at) / RFU IRGQ (11745062_a_at) / Fold change /veh IRGQ (11745062_a_at) / RFU FAM174B (11720279_a_at) / Fold change /veh FAM174B (11720279_a_at) / RFU TMPRSS4 (11748680_a_at) / Fold change /veh TMPRSS4 (11748680_a_at) / RFU FAM212B (11763350_a_at) / Fold change /veh FAM212B (11763350_a_at) / RFU PLEKHG5 (11743358_a_at) / Fold change /veh PLEKHG5 (11743358_a_at) / RFU ZSCAN30 (11745921_a_at) / Fold change /veh ZSCAN30 (11745921_a_at) / RFU CMKLR1 (11741424_a_at) / Fold change /veh CMKLR1 (11741424_a_at) / RFU LOC101060620 /// MAPK8IP1 (11723275_at) / Fold change /veh LOC101060620 /// MAPK8IP1 (11723275_at) / RFU SPTSSB (11747773_x_at) / Fold change /veh SPTSSB (11747773_x_at) / RFU PRSS12 (11739890_at) / Fold change /veh PRSS12 (11739890_at) / RFU BIN1 (11741810_x_at) / Fold change /veh BIN1 (11741810_x_at) / RFU WNT11 (11732464_a_at) / Fold change /veh WNT11 (11732464_a_at) / RFU C10orf10 (11716521_a_at) / Fold change /veh C10orf10 (11716521_a_at) / RFU C5orf56 (11738089_at) / Fold change /veh C5orf56 (11738089_at) / RFU CYB561 (11721691_x_at) / Fold change /veh CYB561 (11721691_x_at) / RFU ANKRD19P (11752326_a_at) / Fold change /veh ANKRD19P (11752326_a_at) / RFU OR2T12 /// OR2T33 /// OR2T8 (11738714_s_at) / Fold change /veh OR2T12 /// OR2T33 /// OR2T8 (11738714_s_at) / RFU VCAN (11748164_a_at) / Fold change /veh VCAN (11748164_a_at) / RFU JSRP1 (11732532_at) / Fold change /veh JSRP1 (11732532_at) / RFU KRTAP10-11 (11738290_x_at) / Fold change /veh KRTAP10-11 (11738290_x_at) / RFU MYO3A (11730013_a_at) / Fold change /veh MYO3A (11730013_a_at) / RFU EBF3 (11725865_a_at) / Fold change /veh EBF3 (11725865_a_at) / RFU CAMK2N1 (11719241_x_at) / Fold change /veh CAMK2N1 (11719241_x_at) / RFU C5orf56 (11738088_a_at) / Fold change /veh C5orf56 (11738088_a_at) / RFU OLFML3 (11715873_a_at) / Fold change /veh OLFML3 (11715873_a_at) / RFU LOC100653217 /// NTM (11731650_a_at) / Fold change /veh LOC100653217 /// NTM (11731650_a_at) / RFU MAPK11 (11762145_a_at) / Fold change /veh MAPK11 (11762145_a_at) / RFU FIZ1 (11724087_x_at) / Fold change /veh FIZ1 (11724087_x_at) / RFU OASL (11726364_x_at) / Fold change /veh OASL (11726364_x_at) / RFU SOX15 (11748057_x_at) / Fold change /veh SOX15 (11748057_x_at) / RFU CD79A (11719716_a_at) / Fold change /veh CD79A (11719716_a_at) / RFU HIST1H1D (11736915_at) / Fold change /veh HIST1H1D (11736915_at) / RFU CASKIN2 (11723855_a_at) / Fold change /veh CASKIN2 (11723855_a_at) / RFU LOC730098 (11760151_x_at) / Fold change /veh LOC730098 (11760151_x_at) / RFU OR4N2 (11742367_at) / Fold change /veh OR4N2 (11742367_at) / RFU PRRT2 (11749266_a_at) / Fold change /veh PRRT2 (11749266_a_at) / RFU SNX32 (11753110_a_at) / Fold change /veh SNX32 (11753110_a_at) / RFU CDHR5 (11726645_a_at) / Fold change /veh CDHR5 (11726645_a_at) / RFU RCAN1 (11760418_a_at) / Fold change /veh RCAN1 (11760418_a_at) / RFU FAM167A (11723789_a_at) / Fold change /veh FAM167A (11723789_a_at) / RFU FAM26E (11764081_at) / Fold change /veh FAM26E (11764081_at) / RFU ISYNA1 (11749810_s_at) / Fold change /veh ISYNA1 (11749810_s_at) / RFU ACY1 (11761880_at) / Fold change /veh ACY1 (11761880_at) / RFU 11764098_at / Fold change /veh 11764098_at / RFU SAMD14 (11745864_x_at) / Fold change /veh SAMD14 (11745864_x_at) / RFU NPB (11741838_a_at) / Fold change /veh NPB (11741838_a_at) / RFU TMPRSS6 (11731388_a_at) / Fold change /veh TMPRSS6 (11731388_a_at) / RFU KRTAP10-2 (11738614_at) / Fold change /veh KRTAP10-2 (11738614_at) / RFU ARHGAP8 /// PRR5-ARHGAP8 (11727945_x_at) / Fold change /veh ARHGAP8 /// PRR5-ARHGAP8 (11727945_x_at) / RFU KRTAP5-7 /// NADSYN1 (11734609_at) / Fold change /veh KRTAP5-7 /// NADSYN1 (11734609_at) / RFU RASL12 (11751679_a_at) / Fold change /veh RASL12 (11751679_a_at) / RFU CDKN2B (11736163_a_at) / Fold change /veh CDKN2B (11736163_a_at) / RFU PRF1 (11729649_at) / Fold change /veh PRF1 (11729649_at) / RFU, ZNF638 /// ZNF638-IT1 / Fold change vs veh, ZNF638 /// ZNF638-IT1 / RFU, PANK3 / Fold change vs veh, PANK3 / RFU, SH3YL1 / Fold change vs veh, SH3YL1 / RFU, ZEB2 / Fold change vs veh, ZEB2 / RFU, NRIP1 / Fold change vs veh, NRIP1 / RFU, PTTG1IP / Fold change vs veh, PTTG1IP / RFU, CAPN2 / Fold change vs veh, CAPN2 / RFU, MED14 / Fold change vs veh, MED14 / RFU, SNORA58 / Fold change vs veh, SNORA58 / RFU, C1orf63 / Fold change vs veh, C1orf63 / RFU, LRRFIP1 / Fold change vs veh, LRRFIP1 / RFU, NDUFAF7 / Fold change vs veh, NDUFAF7 / RFU, SLC12A2 / Fold change vs veh, SLC12A2 / RFU, IBTK / Fold change vs veh, IBTK / RFU, ESF1 / Fold change vs veh, ESF1 / Fold change vs veh, TMEM50B / RFU, TAOK1 / Fold change vs veh, TAOK1 / RFU, ACBD3 / Fold change vs veh, ACBD3 / RFU, TMA16 / Fold change vs veh, TMA16 / RFU, RWDD3 / Fold change vs veh, RWDD3 / RFU, BCAT1 / Fold change vs veh, BCAT1 / RFU, EDEM3 / Fold change vs veh, EDEM3 / RFU, TMEM33 / Fold change vs veh, TMEM33 / RFU, WDR75 / Fold change vs veh, WDR75 / RFU, AHCTF1 / Fold change vs veh, AHCTF1 / RFU, TFRC / Fold change vs veh, TFRC / RFU, ZDHHC17 / Fold change vs veh, ZDHHC17 / RFU, NOM1 / Fold change vs veh, NOM1 / RFU, ARL8B / Fold change vs veh, ARL8B / RFU, ZBTB11 / Fold change vs veh, ZBTB11 / RFU, TAMM41 / Fold change vs veh, TAMM41 / RFU, KIAA1704 /// LOC100996395 / Fold change vs veh, KIAA1704 /// LOC100996395 / RFU, ING1 / Fold change vs veh, ING1 / RFU, TRMT61B / Fold change vs veh, TRMT61B / RFU, FUBP3 / Fold change vs veh, FUBP3 / RFU, TP53 / Fold change vs veh, TP53 / RFU, TNKS2 / Fold change vs veh, TNKS2 / RFU, ZFP14 / Fold change vs veh, ZFP14 / RFU, ACTR2 / Fold change vs veh, ACTR2 / RFU, PPP3R1 / Fold change vs veh, PPP3R1 / RFU, PIK3R1 / Fold change vs veh, PIK3R1 / RFU, HNRNPA1 / Fold change vs veh, HNRNPA1 / RFU, RNF170 / Fold change vs veh, RNF170 / RFU, ZNF28 / Fold change vs veh, ZNF28 / RFU, RNGTT / Fold change vs veh, RNGTT / RFU, OGT / Fold change vs veh, OGT / RFU, BRD1 / Fold change vs veh, BRD1 / RFU, MARS / Fold change vs veh, MARS / RFU, ZNF655 / Fold change vs veh, ZNF655 / RFU, FAHD1 / Fold change vs veh, FAHD1 / RFU, BDP1 / Fold change vs veh, BDP1 / RFU, LRRCC1 / Fold change vs veh, LRRCC1 / RFU, ARID1A / Fold change vs veh, ARID1A / RFU, ZNF146 / Fold change vs veh, ZNF146 / RFU, ZNF330 / Fold change vs veh, ZNF330 / RFU, GPN3 / Fold change vs veh, GPN3 / RFU, C9orf123 / Fold change vs veh, C9orf123 / RFU, N4BP2L2 / Fold change vs veh, N4BP2L2 / RFU, ARFIP1 / Fold change vs veh, ARFIP1 / RFU, FAM179B / Fold change vs veh, FAM179B / RFU, BCL10 / Fold change vs veh, BCL10 / RFU, UHRF1BP1L / Fold change vs veh, UHRF1BP1L / RFU, BET1 / Fold change vs veh, BET1 / RFU, CNOT2 / Fold change vs veh, CNOT2 / RFU, ZNF268 / Fold change vs veh, ZNF268 / Fold change vs veh, ZNF507 / RFU, DGCR2 / Fold change vs veh, DGCR2 / RFU, WDSUB1 / Fold change vs veh, WDSUB1 / Fold change vs veh, HSP90B1 /// MIR3652 / RFU, ADSS / Fold change vs veh, ADSS / RFU, GK / Fold change vs veh, GK / RFU, ZNF148 / Fold change vs veh, ZNF148 / RFU, TAF9 / Fold change vs veh, TAF9 / RFU, SLC1A5 / Fold change vs veh, SLC1A5 / RFU, SLMO2 / Fold change vs veh, SLMO2 / RFU, ABCC4 / Fold change vs veh, ABCC4 / RFU, LOC101060439 /// RAP1B / Fold change vs veh, LOC101060439 /// RAP1B / RFU, RFX7 / Fold change vs veh, RFX7 / RFU, GTPBP10 / Fold change vs veh, GTPBP10 / RFU, CNEP1R1 / Fold change vs veh, CNEP1R1 / RFU, BIVM-ERCC5 /// ERCC5 / Fold change vs veh, BIVM-ERCC5 /// ERCC5 / RFU, ILF3 / Fold change vs veh, ILF3 / RFU 11762660_at / Fold change /veh 11762660_at / RFU VCAN (11757783_s_at) / Fold change /veh VCAN (11757783_s_at) / RFU DDX43 (11728927_at) / Fold change /veh DDX43 (11728927_at) / RFU KRT8 (11758188_x_at) / Fold change /veh KRT8 (11758188_x_at) / RFU NKD1 (11759106_at) / Fold change /veh NKD1 (11759106_at) / RFU SRD5A1 (11742802_a_at) / Fold change /veh SRD5A1 (11742802_a_at) / RFU TPSAB1 /// TPSB2 (11721975_s_at) / Fold change /veh TPSAB1 /// TPSB2 (11721975_s_at) / RFU GSTM3 (11746129_a_at) / Fold change /veh GSTM3 (11746129_a_at) / RFU IL23R (11737362_x_at) / Fold change /veh IL23R (11737362_x_at) / RFU TMEM51 (11727254_a_at) / Fold change /veh TMEM51 (11727254_a_at) / RFU PIWIL2 (11732686_x_at) / Fold change /veh PIWIL2 (11732686_x_at) / RFU ORM1 (11744905_x_at) / Fold change /veh ORM1 (11744905_x_at) / RFU CCDC152 (11743942_at) / Fold change /veh CCDC152 (11743942_at) / RFU ECM1 (11717891_a_at) / Fold change /veh ECM1 (11717891_a_at) / RFU IL23R (11748794_a_at) / Fold change /veh IL23R (11748794_a_at) / RFU TNFAIP8L3 (11732012_x_at) / Fold change /veh TNFAIP8L3 (11732012_x_at) / RFU MBOAT4 (11741988_at) / Fold change /veh MBOAT4 (11741988_at) / RFU 11764193_at / Fold change /veh 11764193_at / RFU TMEM53 (11763286_at) / Fold change /veh TMEM53 (11763286_at) / RFU MAGEB2 (11727129_at) / Fold change /veh MAGEB2 (11727129_at) / RFU TMEM200A (11744735_a_at) / Fold change /veh TMEM200A (11744735_a_at) / RFU CCDC152 (11751479_a_at) / Fold change /veh CCDC152 (11751479_a_at) / RFU FAM211A (11726209_a_at) / Fold change /veh FAM211A (11726209_a_at) / RFU RGS16 (11746705_a_at) / Fold change /veh RGS16 (11746705_a_at) / RFU VCAN (11755009_s_at) / Fold change /veh VCAN (11755009_s_at) / RFU RHOB (11743442_s_at) / Fold change /veh RHOB (11743442_s_at) / RFU RGS16 (11720943_a_at) / Fold change /veh RGS16 (11720943_a_at) / RFU RGS16 (11720944_at) / Fold change /veh RGS16 (11720944_at) / RFU, VPS4B / Fold change vs veh, VPS4B / RFU, CREB1 / Fold change vs veh, CREB1 / RFU, DNAJC13 / Fold change vs veh, DNAJC13 / RFU, GNAQ / Fold change vs veh, GNAQ / RFU, CDK5R1 / Fold change vs veh, CDK5R1 / RFU, ZRANB3 / Fold change vs veh, ZRANB3 / RFU, CUL4A / Fold change vs veh, CUL4A / RFU, CCNY / Fold change vs veh, CCNY / RFU, UFL1 / Fold change vs veh, UFL1 / RFU, COG3 / Fold change vs veh, COG3 / RFU, DIAPH2 / Fold change vs veh, DIAPH2 / RFU, SKA2 / Fold change vs veh, SKA2 / RFU, AFF3 / Fold change vs veh, AFF3 / RFU, LMF1 / Fold change vs veh, LMF1 / RFU, IPO11 / Fold change vs veh, IPO11 / RFU, DFFB / Fold change vs veh, DFFB / RFU, FOXP1 / Fold change vs veh, FOXP1 / RFU, CARD8 / Fold change vs veh, CARD8 / RFU, STRN3 / Fold change vs veh, STRN3 / RFU, ADK / Fold change vs veh, ADK / RFU, RASSF2 / Fold change vs veh, RASSF2 / RFU, WIPF1 / Fold change vs veh, WIPF1 / RFU, LARP1B / Fold change vs veh, LARP1B / RFU, RASA1 / Fold change vs veh, RASA1 / RFU, RB1 / Fold change vs veh, RB1 / RFU, PPFIA1 / Fold change vs veh, PPFIA1 / RFU, MAT2A / Fold change vs veh, MAT2A / RFU, CCT5 / Fold change vs veh, CCT5 / RFU, WDR92 / Fold change vs veh, WDR92 / RFU, CUX1 / Fold change vs veh, CUX1 / RFU, TTC7A / Fold change vs veh, TTC7A / RFU, TMEM135 / Fold change vs veh, TMEM135 / RFU, DEPTOR / Fold change vs veh, DEPTOR / RFU, CPM / Fold change vs veh, CPM / RFU, DNAJB6 / Fold change vs veh, DNAJB6 / RFU, CACNA2D3 / Fold change vs veh, CACNA2D3 / RFU, DTX4 / Fold change vs veh, DTX4 / RFU, TFCP2 / Fold change vs veh, TFCP2 / RFU, GMCL1 /// GMCL1P1 / Fold change vs veh, GMCL1 /// GMCL1P1 / RFU, AEBP2 / Fold change vs veh, AEBP2 / RFU, SNHG1 /// SNORD22 /// SNORD25 /// SNORD26 /// SNORD27 /// SNORD28 /// SNORD29 /// SNORD31 / Fold change vs veh, SNHG1 /// SNORD22 /// SNORD25 /// SNORD26 /// SNORD27 /// SNORD28 /// SNORD29 /// SNORD31 / Fold change (Aza/veh), C12orf56 (ProbeSet 11735607_a_at) / Fold change (ACY-1035/veh), C12orf56 (ProbeSet 11735607_a_at) / Fold change (Aza/veh), FGFR1OP (ProbeSet 11751329_s_at) / Fold change (ACY-1035/veh), FGFR1OP (ProbeSet 11751329_s_at) / Fold change (Aza/veh), VPS36 (ProbeSet 11739960_a_at) / Fold change (ACY-1035/veh), VPS36 (ProbeSet 11739960_a_at) / RFU SYPL1 (11715823_x_at) / Fold change /veh SYPL1 (11715823_x_at) / RFU IGFBP7 (11715501_s_at) / Fold change /veh IGFBP7 (11715501_s_at) / RFU REEP3 (11722064_at) / Fold change /veh REEP3 (11722064_at) / RFU IGLL1 (11728026_x_at) / Fold change /veh IGLL1 (11728026_x_at): dose or concentration left out as unconfirmed",
  "details": "ProbeSet 11720566_at; LIST D",
  "data": [
    {"smiles": "Nc1ncn([C@@H]2O[C@H](CO)[C@@H](O)[C@H]2O)c(=O)n1", "note": "[azacitidine]", "values": [
      {"measurement": "RFU, BCAT1", "value": 650.05, "unit": "RFU"}
    ]}
  ]
}
